The values below come from patent publication EP0005299A1, “Substituted 1-phenyl-2,3,4,5-tetrahydro-1H-3-benzazepines, process for the preparation thereof, and pharmaceutical compositions containing them” (priority 1978, dated 1979).

Data set [1] deals with methamphetamine. Kind of data set: Methamphetamine reversal assay. Type of data set: in vivo, mice.
Data set [2] in a line: Acute oral toxicity (LD50). Conditions: mouse, in vivo; oral dose in mice.
Data set [3] relates to muricidal behavior. Nature of the data set: Anti-muricide assay. The class given is in vivo, Male Long Evans rats. Conditions: Rattus norvegicus, ip; rats, intraperitoneal injection, mouse presented at 30 and 60 minutes; dosage at which 50% of the tested rats do not kill mice. As for the experimental part: Anti-muricide assay: Male Long Evans rats weighing 225-250 g are housed I rat per cage, and killers (rats show an instinctive mouse killing behavior (muricide)) are selected initially after being deprived of food for approximately 66 hours. This is the only time the rats are deprived of food. Food, ad libitum, is-avaiable on the cage floor since food bins are not practical because they afford a hiding place for mice. The rats are tested for muricidal behavior the following day and once a week thereafter; non-killers are always eliminated. A non-killer is a rat which fails to kill a mouse placed into his cage within 5 minutes. Drugs are tested in the afternoon of the day following this weekly check for persistance of the killing behavior. Since the rats are not deprived of food or water and rarely attempt to eat the mouse, this behavior is not motivated by hunger. Four weeks after the first test for killing, the rats are injected, i.p., with placebo and then tested 30/60 minutes after the injection. […] Only rats that consistantly kill mice placed in their home cages are used for drug testing. Every treatment-group is comprised of 5 rats. […] Blockade of muricidal behavior is determined by observing the number of surviving mice 5 minutes after being introduced into the rat cages.

Structures can show the parent of a compound that is named as a salt.

For orientation: ED50 means the midpoint of the dose-response relation. A word on the LD50: it is the dose expected to kill half of the subjects tested. Low readings indicate greater toxicity, high ones lower toxicity. In the case of `CN1CCc2cc(Cl)c(OC(=O)N(C)C)cc2[C@H](c2ccccc2)C1` [(S)-7-chloro-8-dimethylaminocarbonyloxy-3-methyl-1-phenyl-2,3,4,5-tetrahydro-lH-3-benzazepine hydrochloride], the ED50 was 1.2 mg/kg in data set [1] (Mus musculus, po, 4 h) and 5.7 mg/kg in data set [3]. Also, the LD50 in data set [2] was > 300 mg/kg.

On to `OCCN1CCN(CCCN2c3ccccc3Sc3ccc(Cl)cc32)CC1` [perphenazine, reference compound], for which the “protection from methamphetamine lethality” value in data set [1] (control, perphenazine at 1 mg/kg, aggregated mice, methamphetamine 15 mg/kg i.p.) is “complete protection”.
